The values that follow come from patent US10463694B2, “Functional segregated telodendrimers and nanocarriers and methods of making and using same” (The Research Foundation for the State University of New York, priority 2014, dated 2019).

The Cmax is the peak of the concentration-time curve. As usually defined, the AUC is concentration integrated over time. High values mean more exposure, low ones less exposure. The Vss is a proportionality between amount in the body and measured concentration, not a real space.

Series [1] in a line: Pharmacokinetics of platinum in plasma after i.v. injection. In kind it is in vivo, mice. The method, then: Pharmacokinetics and biodistribution. The blood pharmacokinetics study were performed using female SPF BALB/c mice, which were purchased from Charles River Laboratories Inc. Nanocarriers were administered into mice via tail vein injection with free drug mixture of CDDP/PTX or co-loading TM (CDDP/PTX=2:1) solution at a single equivalent dose of CDDP/PTX 6/3 mg/kg via tail vein. At defined time points (5 min, 0.5 h, 1 h, 2 h, 4 h, 8 h, 24 h and 48 h), blood samples were collected into heparinized tubes and immediately centrifuged at 1,000 rpm for 15 min to obtain plasma. Plasma samples were dissolved on heat in nitric acid and the platinum contents were measured by ICP-MS. The percentage of injected dose in plasma was calculated considering plasma volume in mice to be 45.6 mL/kg. (King F G, Dedrick R L. Physiological pharmacokinetic parameters for cis-dichlorodiammineplatinum(II) (DDP) in the mouse. J Pharmacokinet Biopharm. 1992; 20:95-9.)

Series [2] deals with SKOV-3 ovarian cancer xenografts. Put plainly: In vivo anticancer efficacy.
Description: Xenograft Mouse Models. Female athymic nude mice (Nu/Nu strain), 5-6 weeks age, were purchased from Harlan (Livermore, Calif.). All animals were kept under pathogen-free conditions according to AAALAC (Association for Assessment and Accreditation of Laboratory Animal Care) guidelines and were allowed to acclimatize for at least 4 days prior to any experiments. All animal experiments were performed in compliance with institutional guidelines and according to protocol approved by the Animal Use and Care Administrative Advisory Committee. SKOV-3 ovarian cancer cells (7×10^6) in a 100/IL of mixture of PBS and Matrigel (1:1 v/v) without fetal bovine serum (FBS) were injected subcutaneously into the flanks of nude mice to form nodules.
In vivo anticancer efficacy. Nude mice bearing human SKOV3 ovarian cancer tumor (approximately 150 mm^3) were randomly divided into 6 groups (n=5), including control (PBS only), free CDDP (4 mg/kg CDDP), TM(PTX) (3 mg/kg PTX), PEG(CDDP) (4 mg/kg CDDP), TM(CDDP) (6 mg/kg CDDP), and TM(CDDP/PTX=2:1) (6 mg/kg CDDP, 3 mg/kg PTX). Treatments were administered 3 times totally via tail vein on day 0, 4 and 8. Animal body weight and tumor volume were monitored every second day. Seven days after the last treatment, about 100 μL of blood was collected via tail bleeding for blood counts. The tumor sizes were measured with electronic calipers, and calculated using the following formula: V=(shortest diameter^2×longest diameter)/2.
A further series relates to Hela cells. Put plainly: MTS cytotoxicity and combination index, Hela. In kind it is cell-based. The conditions noted are these: 72 h.
For series [3] the following is noted: cancer treatment in mouse models; cited from earlier work.
The nature of series [4]: Tissue biodistribution of Pt by ICP-MS. The series is classed as in vivo, nude mice. As to conditions: 48 h post-injection. The protocol:
Free CDDP and TM (CDDP/PTX=2:1) were injected into nude mice via tail vein at a single equivalent dose of CDDP 6 mg/kg. At 48 h post-injection, major organs (heart, liver, spleen, lung and kidney) and tumor tissues were harvested from the mice. The organs were weighed and dissolved in the concentrated nitric acid by heating up (70° C.) and evaporated to dryness, and then re-dissolved in 0.1N HCl for tissue biodistribution of Pt analysis by ICP-MS.

Series [5] relates to SKOV-3 ovarian cancer cells. Put plainly: MTS cytotoxicity and combination index, SKOV-3. The series is classed as cell-based, human. The conditions noted are these: 72 h. The method, then: (§1) In vitro synergistic cytotoxicity: The cytotoxicity of blank micelles and drug-loaded micelle were assessed by measuring the cell viability using the standard MTS assay. SKOV-3 ovarian cancer cells and ES-2 ovarian cancer cells were seeded in 96-well plates at 4×10^3 cells per well in 100 μL of McCoy's 5A with L-glutamine containing 10% fetal bovine serum, supplemented with 50 U/mL penicillin and 50 U/mL streptomycin, and incubated at 37° C. in 5% CO2 atmosphere for 24 h. Different concentrations of the empty micelle solutions and drug-loaded micelles were added into the cell medium. After 72 h incubation, Cell Titer 96® Aqueous Cell Proliferation Reagent, which is composed of MTS and an electron coupling reagent PMS, was added to each well according to the manufacturer's instructions. The cell viability was determined by measuring the absorbance at 490 nm using a micro-plate reader. […]
(§2) The effective method to evaluate synergistic drug combinations in vitro is median-effect analysis, as originally proposed by Chou and Talalay (Chou T C. Theoretical basis, experimental design, and computerized simulation of synergism and antagonism in drug combination studies. Pharmacol Rev. 2006; 58:621-81. Chou T C, Talalay P. Quantitative analysis of dose-effect relationships: the combined effects of multiple drugs or enzyme inhibitors. Adv Enzyme Regul. 1984; 22:27-55.). […]

For series [6], the system named is ES-2 ovarian cancer cells. Put plainly: MTS cytotoxicity and combination index, ES2. The series is classed as cell-based. As to conditions: 72 h. The method, then: as §1, §2
The conditions of series [7]: in vivo; cited from earlier work.
Series [8] concerns wide variety of cancer cells in culture. The conditions noted are these: cited from earlier work.
Series [9] is described as follows: DOX release, dialysis against PBS. In kind it is physicochemical. The conditions noted are these: dialysis against PBS at 37° C. The method, then:
DOX Release. 1 mL of DOX-PEG^5KCHA4-L-Rh4 (1.5:15.0) solution was distributed into three dialysis tube and dialyzed against 50 ml PBS at 37° C., respectively, in comparison with free DOX. The samples were placed in conical tubes filled with PBS, which was refreshed at the time of UV-Vis measuring at 550 nm (FIG. 13). The free DOX was completely released by 10 hours but the loaded DOX remained encapsulated at around 50% by the time the study was finished at 96 hours. This indicates the high DOX binding affinity within PEG^5KCHA4-L-Rh4 micelles and a sustained DOX release would reduce in vivo toxicity of payload drug and increase tumor targeting effects via the prolonged circulating to take EPR effects.

For a further series, the system named is SKOV-3 tumor xenograft. Put plainly: NIRF optical animal imaging, in vivo and ex vivo. The conditions noted are these: in vivo whole body imaging. Also noted: species or system nude mice. The method, then: DiD (a hydrophobic near-infrared (NIR) cyanine dye) was encapsulated in each nanocarrier (together with PTX and CDDP) at a ratio of 2:1:0.1 (CDDP/PTX/DiD by weight) using the same method as described above. The particle size was measured by DLS analysis. 100 μL of TM(DiD-PTX-CDDP) solution was filtered with a 0.22 μm filter to sterilize solution before injection. At the same time, same amount of DiD in DMSO solution was diluted with PBS right before I.V. injection. The fluorescent DiD co-loaded TM with equivalent dose of 6 mg/kg CDDP were injected into nude mice bearing SKOV-3 tumor xenograft via tail vein. Mice were anesthetized via isoflurane and optically imaged at different time points (1 h, 2 h, 4 h, 8 h, 24 h, 48 h and 72 h) using an IVIS 200 (PerkinElmer) with the (excitation/emission 625/700 nm). At the end of the experiments, the animals were sacrificed and all the major organs as well as tumors were excised for ex vivo imaging to determine the in vivo biodistribution of nanoparticles. The associated fluorescence intensities were determined by Living Image software (Caliper Life Sciences) using operator-defined regions of interest (ROI) measurements.

Where [10] appears, read: platinum in plasma, i.v., two compartment model.
The mark [11] stands for this setting: first figure of co-loaded cells.

Molecules are shown by their SMILES. “And” between values parts separate entries of the source, which are not always exact repeats. Equal entries are not always repeated.

For `[NH2][Pt]([NH2])([Cl])[Cl]` [CDDP, Cisplatin], the “Pt of the injected dose in plasma” value in series [1] (30 min after injection) amounted to 5%. The “Pt of the injected dose in plasma” value in series [1] (24 h post injection) is given as “less than 1%”. Besides, the maximum concentration (Cmax) in [1] (platinum in plasma, 5 min post iv injection) is 27.6 µg/mL and 27.58 µg/mL. Besides, in series [1] (platinum in plasma, i.v.), the exposure (AUC) was 30.8 µg·h/mL, the CL was found to be 0.12987 L/h/kg, the CL2 was determined as 0.5593 L/h/kg and the Vss amounted to 0.6681 L/kg. In series [1] (setting [10]), this compound registered a t1/2α of 2.64 min and a t1/2β of 258 min. Moreover, the medium survival time in series [2] (4 mg/kg CDDP) is recorded as 15 days. Also, the body weight loss result in series [2] (4 mg/kg CDDP on days 0, 4, 8, day 12) is reported as “exceeded 20%”. The mortality entry in series [2] (4 mg/kg CDDP, deaths on day 12, 13, 15, 16 and 17) is recorded as “died”. The “WBC count versus PBS control” value in [2] (day 7 after the last injection, 4 mg/kg CDDP) is on record as “significantly decreased”. Besides, the “Hela IC50, CDDP concentration” value with Hela cells (setting [11]) was 2.427 mg/L. In addition, the “maximum tolerated dose (MTD)” value in series [3] is listed as no more than 4 mg/kg. Besides, in series [4], the “kidney/tumor ratio of Pt concentrations” value came to 4 and the “liver/tumor ratio of Pt concentrations” value is 2. Also, in series [5] (first figure of co-loaded cells (CDDP/PTX)), the “SKOV-3 IC50, CDDP concentration” value came out at 1.354 mg/L. The “ES2 IC50, CDDP concentration” value in series [6] (setting [11]) turned out to be 0.92 mg/L.

On to `CC(=O)O[C@H]1C(=O)[C@@]2(C)[C@H]([C@H](OC(=O)c3ccccc3)[C@]3(O)C[C@H](OC(=O)[C@H](O)[C@@H](NC(=O)c4ccccc4)c4ccccc4)C(C)=C1C3(C)C)[C@]1(OC(C)=O)CO[C@@H]1C[C@@H]2O` [PTX, paclitaxel], for which the IC50 in the series on Hela cells (Homo sapiens, HeLa, second figure of co-loaded cells, read-out: Hela IC50, PTX concentration) was 0.02 mg/L; in series [5] (Homo sapiens, SK-OV-3, second figure of co-loaded cells (CDDP/PTX), read-out: SKOV-3 IC50, PTX concentration) it was 0.032 mg/L; in series [6] (second figure of co-loaded cells, read-out: ES2 IC50, PTX concentration), 0.055 mg/L. For the same compound, the t1/2 in human in [7] was 20.4 min. Moreover, in series [8], the “potency relative to CDDP (IC50s: low nM vs low μM)” value is recorded as roughly 1000 times.

`COc1cccc2c1C(=O)c1c(O)c3c(c(O)c1C2=O)C[C@@](O)(C(=O)CO)C[C@@H]3O[C@H]1C[C@H](N)[C@H](O)[C@H](C)O1` [free DOX, Doxorubicin]: the “time to complete DOX release” value in series [9] was no more than 10 h.

As for `CCCCCCCCCCCCCCCCCCN1C(=CC=CC=CC2=[N+](CCCCCCCCCCCCCCCCCC)c3ccccc3C2(C)C)C(C)(C)c2ccccc21.[O-][Cl+3]([O-])([O-])[O-]` [free DiD, 1,1′-dioctadecyl-3,3,3,′,3′-tetramethylindodicarbocyanine perchlorate], the tumor fluorescence entry with SKOV-3 tumor xenograft was “very weak tumor fluorescence”.
